Data on two compounds can be found in publication PMC12498411, “Antidepressant-like Properties of a Selenium-Containing Pyridinium Salt Explored through In Vitro, In Vivo, and In Silico Approaches” (ACS Chemical Neuroscience, 2025).

The subject of experiment [1] is cerebral lipid peroxidation. In words: TBARS assay, SNP-induced lipid peroxidation in brain homogenate. It is filed as biochemical, mouse. To be noted: mouse brain homogenate, SNP-induced. On the procedure:
(§1) Brains from mice of both sexes were used for in vitro assays, each performed in duplicate across three independent experiments (n = 3), conducted on different days.
The brain tissues were homogenized in a 50 mM Tris-HCl buffer at pH 7.4, using a 1:10 ratio (w/v). The freshly prepared homogenate was then centrifuged at 900g for 10 min, yielding a low-speed supernatant (S1). Lipid peroxidation was evaluated using the TBARS method as previously described. Lipid peroxidation was induced by 0.3 mM SNP. A 100 μL aliquot of S1 was incubated for 1 h at 37 °C in the presence of the compounds 3A, 3B, and 3C at concentrations ranging from 25 to 500 μM, and SNP or water (to control). The color reaction was initiated by adding 500 μL of a 0.8% thiobarbituric acid (TBA) solution, followed by 200 μL of 8.1% sodium dodecyl sulfate (SDS) and 500 μL of acetic acid (pH 3.4). The reaction mixture was incubated at 95 °C for 1 h. The absorbance was measured using a spectrophotometer at a wavelength of 532 nm. Trolox (100 μM), an antioxidant analogous to vitamin E, served as a positive control. The results were reported as nmol TBARS per gram of tissue. A parallel TBARS experiment was also conducted using a standard alkyl aryl selenide (2-((phenylselanyl)-methyl)-pyridine), dissolved in DMSO at the same concentrations tested, ranging from 25 to 500 μM.

A further experiment concerns protein carbonylation. The experiment can be described thus: Protein carbonylation assay, SNP-induced, brain homogenate. The note with it: for IC50: mouse brain homogenate, SNP-induced, 25–200 μM; for Concentrations effective in reducing SNP-induced protein carbonylation: tested 25–200 μM. The experiment is classed as biochemical, mouse. On the procedure: as §1
The evaluation of protein carbonylation was performed according to a previously established protocol, using freshly prepared brain homogenate diluted at a 1:8 ratio in Tris-HCl buffer. Test compounds (10 μL), ranging in concentrations from 25 to 200 μM, were individually introduced into separate test tubes. Trolox (100 μM) served as the standard antioxidant. The diluted brain homogenate (940 μL) was then added to all tubes, followed by SNP (1 mM) as the inducing oxidative agent (50 μL). The tubes were promptly incubated at 37 °C for 2 h. Following incubation, 2 M HCl was added to blank tubes (200 μL), while 10 mM 2,4-dinitrophenyl-hydrazine (DNPH) solution was added to test tubes (200 μL). The mixture was incubated for 1 h in darkness at room temperature, with intermittent stirring every 15 min to facilitate the color reaction. Subsequently, 500 μL of denaturation buffer, 1.5 mL of ethanol, and 1.5 mL of hexane were added to all tubes, which were then vigorously shaken for 40 s. The tubes were then centrifuged at 900g for 15 min, and the supernatant was carefully decanted. The resulting pellet was washed twice with 1 mL of ethanol/ethyl acetate solution (1:1). After allowing the pellet to dry air for 2 min, it was resuspended in 1 mL of denaturation buffer and subjected to spectrophotometric analysis at 370 nm. The findings were quantified as nmol carbonyl per gram of tissue.

For another experiment, the target named is T1, MAO-B (Mus musculus, UniProt Q8BW75).
T1 construct: Mitochondria-enriched brain preparations were obtained in accordance with established methodology outlined in literature; from tissue; host or cells: mouse brain, mitochondria-enriched fraction
T1 sequence (Q8BW75 1-520): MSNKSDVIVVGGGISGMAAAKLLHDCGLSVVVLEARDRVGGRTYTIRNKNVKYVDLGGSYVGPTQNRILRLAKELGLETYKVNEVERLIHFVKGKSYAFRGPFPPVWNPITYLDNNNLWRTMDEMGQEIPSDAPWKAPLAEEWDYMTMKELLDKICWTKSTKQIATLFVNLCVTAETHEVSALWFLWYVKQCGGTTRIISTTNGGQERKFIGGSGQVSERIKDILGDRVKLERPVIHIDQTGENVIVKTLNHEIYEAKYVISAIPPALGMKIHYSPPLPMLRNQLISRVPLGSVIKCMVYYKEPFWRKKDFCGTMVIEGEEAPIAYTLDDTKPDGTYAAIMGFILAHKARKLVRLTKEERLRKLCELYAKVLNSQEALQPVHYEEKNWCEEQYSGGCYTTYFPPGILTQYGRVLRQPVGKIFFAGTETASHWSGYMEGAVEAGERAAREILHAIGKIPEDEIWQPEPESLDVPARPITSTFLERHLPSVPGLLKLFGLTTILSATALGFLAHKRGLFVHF
In words: Cerebral MAO-B activity, mitochondria-enriched mouse brain fraction (kynuramine, fluorimetric). The experiment is classed as biochemical. On the procedure: Mitochondria-enriched brain preparations were obtained in accordance with established methodology outlined in literature. The homogenate was prepared using the mouse brain tissue and a homogenization buffer (Na2PO4/KH2PO4/sucrose) at a ratio of 1:4 (w/v). The homogenate was centrifuged at 900g at 4 °C for 5 min. The resulting supernatant was separated and subjected to centrifugation at 12,500g for 15 min. The resulting pellet was resuspended in the homogenization buffer and subjected to a further round of centrifugation under identical conditions. Finally, the mitochondrial pellet obtained was reconstituted in an assay buffer solution (Na2PO4/KH2PO4/KCl). Protein concentration was estimated using the Bradford method and standardized as 1 mg/mL for the experiments.
MAO activity was assessed following the method outlined by Krajl, with some modifications by Matsumoto. Briefly, a 100 μL aliquot of the mitochondria-rich fraction was incubated at 37 °C for 5 min with specific MAO inhibitors: clorgyline (250 nM, a MAO-A inhibitor), or pargyline (250 nM, a MAO-B inhibitor). Then, 10 μL of each compound was introduced at varying concentrations (25–200 μM). Water (10 μL) was used in the control tubes. Afterward, the substrate, 20 μL of kynuramine dihydrobromide, was added to achieve a final concentration of 90 μM for MAO-A and 60 μM for MAO-B. The samples were incubated at 37 °C for 30 min. The reaction was halted by the addition of 300 μL of 10% trichloroacetic acid (TCA). After centrifuging at 16,000g for 15 min, an aliquot of 800 μL of the supernatant was mixed with 1 mL of 1 M sodium hydroxide (NaOH). The samples were measured using a fluorimeter with excitation at 315 nm and emission at 380 nm.

Like-named read-outs stand apart in the source and are kept apart here.

As for `O=C(C[n+]1ccccc1C[Se]c1ccccc1)c1ccccc1.[Br-]` [Compound 3A, 1-(2-oxo-2-phenylethyl)-2-((phenylselanyl)methyl)pyridin-1-ium bromide], the IC50 (in general, the midpoint of a concentration-inhibition curve) in experiment [1] was 150 µM; in the experiment on protein carbonylation, 130 µM; on MAO-B it was 129 µM. Further, the “Concentrations effective in reducing SNP-induced protein carbonylation” value with protein carbonylation was “all concentrations”.

Turning to `Cc1ccc(C(=O)C[n+]2ccccc2C[Se]c2ccccc2)cc1` [Compound 3B, 1-(2-oxo-2-(p-tolyl)ethyl)-2-((phenylselanyl)methyl)pyridin-1-ium bromide], the IC50 in experiment [1] was 130 µM; with protein carbonylation, 230 µM; on MAO-B (mouse brain mitochondria-rich fraction, 25–200 μM, kynuramine 60 μM, read-out: IC50 for MAO-B), 91.1 µM. The “Concentrations effective in reducing SNP-induced protein carbonylation” value in the experiment on protein carbonylation worked out at 200 µM. Further, the “Concentrations with significant inhibition of MAO-B activity” value at MAO-B (tested 25–200 μM, Dunnett vs control) was at least 50 µM.
